Data as given in publication PMC9814838, “The orphan nuclear receptor Nurr1 is responsive to non-steroidal anti-inflammatory drugs” (Communications Chemistry, 2020).
“Also recorded” adds a separate entry of the source.

T1: NOR1 (Homo sapiens, UniProt Q92570)
T1 construct: NOR1 (isoform alpha; uniprot entry: hNOR1–Q92570-1, residues 393–626); expressed in transfected cells; host or cells: HEK293T
T1 sequence (Q92570 393-626): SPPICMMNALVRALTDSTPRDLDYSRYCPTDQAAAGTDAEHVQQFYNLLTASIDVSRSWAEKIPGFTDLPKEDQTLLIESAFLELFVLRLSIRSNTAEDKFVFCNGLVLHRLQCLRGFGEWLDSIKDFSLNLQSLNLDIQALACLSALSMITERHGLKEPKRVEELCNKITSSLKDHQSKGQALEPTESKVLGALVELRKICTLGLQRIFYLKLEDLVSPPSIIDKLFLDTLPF

T2: RXRα (Homo sapiens, UniProt P19793)
T2 construct: expressed in transfected cells; host or cells: HEK293T
T2 sequence (P19793 227-458 limits assumed): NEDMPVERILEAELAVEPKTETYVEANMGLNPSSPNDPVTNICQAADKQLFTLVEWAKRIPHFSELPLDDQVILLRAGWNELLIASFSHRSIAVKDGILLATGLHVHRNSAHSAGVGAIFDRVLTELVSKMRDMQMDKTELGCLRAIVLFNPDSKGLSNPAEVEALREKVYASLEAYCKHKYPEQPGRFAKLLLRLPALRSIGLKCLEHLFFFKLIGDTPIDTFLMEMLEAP

T3: GFP-RXRα LBD (human, UniProt P19793-1 226-462)
T3 construct: Superfolder GFP is the FRET acceptor; a BamHI site lies between GFP and the LBD; also called GFP-labeled RXRα LBD; source: E. coli T7 express with pGro7, purified (IMAC, TEV cleavage, reverse IMAC, SEC); not shown: His10, N-terminal, cleaved; superfolder GFP, N-terminal, kept
T3 sequence (looked up): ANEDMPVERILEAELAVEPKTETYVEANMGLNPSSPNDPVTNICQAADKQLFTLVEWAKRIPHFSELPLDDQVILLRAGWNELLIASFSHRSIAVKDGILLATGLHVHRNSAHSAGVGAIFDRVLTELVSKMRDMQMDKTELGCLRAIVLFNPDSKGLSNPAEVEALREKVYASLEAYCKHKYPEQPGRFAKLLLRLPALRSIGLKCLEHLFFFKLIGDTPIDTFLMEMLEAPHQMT

B1: GFP-Nurr1 LBD (domain or fragment, human, UniProt P43354-1 364-598, looked up)
chain: LISALVRAHVDSNPAMTSLDYSRFQANPDYQMSGDDTQHIQQFYDLLTGSMEIIRGWAEKIPGFADLPKADQDLLFESAFLELFVLRLAYRSNPVEGKLIFCNGVVLHRLQCVRGFGEWIDSIVEFSSNLQNMNIDISAFSCIAALAMVTERHGLKEPKRVEELQNKIVNCLKDHVTFNNGGLNRPNYLSKLLGKLPELRTLCTQGLQRIFYLKLEDLVPPPAIIDKLFLDTLPF
notes: Superfolder GFP is the FRET acceptor; a BamHI site lies between GFP and the LBD; also called GFP-labeled Nurr1 LBD; source: E. coli T7 express with pGro7, purified (IMAC, TEV cleavage, reverse IMAC, SEC); not shown: His10, N-terminal, cleaved; superfolder GFP, N-terminal, kept
B2: biotinylated recombinant Nurr1 LBD (Tb-labeled through Tb-cryptate streptavidin) (domain or fragment, human, UniProt P43354-1 364-598, looked up)
chain: B1 chain
modifications: biotin on the lysine residue in the Avi-Tag
notes: In the assays coupled to terbium cryptate streptavidin conjugate (Tb-SA) as FRET donor; also called Tb-labeled Nurr1 LBD; Tb-cryptate-labeled Nurr1 LBD; source: E. coli T7 express with pGro7, purified (IMAC, TEV cleavage, amylose resin, birA biotinylation, monomeric avidin, SEC); not shown: MBP, N-terminal, cleaved; His8, N-terminal, cleaved; Avi-Tag, N-terminal, kept

What was measured:
[1] = target: T4, Nurr1–NCoR-1 interaction (Homo sapiens, UniProt P43354); assay: Nurr1–NCoR-1 interaction HTRF (GFP-Nurr1 LBD titrated against Tb-labeled NCoR-1); assay type: biochemical; settings: cell-free; ligand fixed at 100 µM
T4 construct: Nurr1 (uniprot entry: P43354-1, residues 364–598); His10-Tag (N, cleaved yes); made in house; host or cells: E. coli T7 express (with pGro7)
Experimental: Since ligand concentration was fixed in this setting, interference with the HTRF system is less prone to generate potential artifacts.
To maintain a constant GFP concentration, free GFP protein was added to the dilution series. The experiments were performed in HTRF assay buffer (150 mM KF, 25 mM HEPES pH 7.5 (KOH), 5% (w/v) Glycerol, supplemented with 0.1% (w/v) CHAPS and 5 mM DTT) with 1% DMSO in an assay volume of 20 µl. After 1 h incubation at RT, fluorescence intensities after excitation at 340 nm were recorded at 520 nm for GFP acceptor fluorescence and 620 nm for Tb-SA donor fluorescence and the HTRF signal was calculated as described above.

[2] = target: T5, NurRE: Nurr1 homodimer (Homo sapiens, UniProt P43354); assay: Full-length Nurr1 reporter gene assay on NurRE response element; assay type: cell-based; settings: full-length human Nurr1; HEK293T; mean ± SD
T5 construct: the activity of full-length human Nurr1 in cellular settings; host or cells: HEK293T

[3] = target: T6, Nurr1 LBD homodimer (Homo sapiens, UniProt P43354); assay: Nurr1 homodimerization HTRF (GFP-Nurr1 LBD vs Tb-labeled Nurr1 LBD); assay type: biochemical; settings: cell-free; ligand 100 µM
T6 construct: Nurr1 (uniprot entry: P43354-1, residues 364–598); MBP-Asn10 linker (N, cleaved yes); His8-Tag (N, cleaved yes); His10-Tag (N, cleaved yes); made in house; host or cells: E. coli T7 express (with pGro7)
Experimental: Strength and modulation of the formation of the heterodimer composed of the LBDs of Nurr1 and RXRα was investigated by titration of GFP-RXRα LBD against a fixed concentration of Nurr1 LBD. Assay solutions were prepared in HTRF assay buffer supplemented with 0.1% (w/v) CHAPS as well as 1% DMSO with test compounds at 100 µM or DMSO alone as negative control. […] Free GFP was added to keep the total GFP content stable at 4 µM throughout the entire series in order to suppress artefacts from changes in degree of diffusion enhanced FRET. Samples were equilibrated at RT for 2 h before FI520 and FI620 were recorded after excitation at 340 nm, and the HTRF signal was calculated as described above.

[4] = test system: Nurr1; set-up: method as in PMID 26124091; settings: cited from earlier work
[5] = target: T7, DR5: Nurr1–RXRα heterodimer (Homo sapiens, UniProt P43354); assay: Full-length Nurr1 reporter gene assay on DR5 response element; assay type: cell-based; settings: full-length human Nurr1 and RXRα overexpressed; HEK293T; mean ± SD
T7 construct: the activity of full-length human Nurr1 in cellular settings; host or cells: HEK293T

[6] = target: T8, Nurr1 (Homo sapiens, UniProt P43354); assay: Gal4-Nurr1 hybrid reporter gene assay in HEK293T cells; assay type: cell-based; settings: for EC50: HEK293T, n≥3; for Nurr1 activity 10μM (mean fold activation) / Nurr1 activity 30μM (mean fold activation): primary screen, n ≥ 2, ^# not significant vs VP16 control
T8 construct: Nurr1 (uniprot entry: hNURR1–P43354, residues 360–598); expressed in transfected cells; host or cells: HEK293T

[7] = target: T9, NBRE: Nurr1 monomer (Homo sapiens, UniProt P43354); assay: Full-length Nurr1 reporter gene assay on NBRE response element; assay type: cell-based; settings: full-length human Nurr1; HEK293T; mean ± SD
T9 construct: the activity of full-length human Nurr1 in cellular settings; host or cells: HEK293T

[8] = target: firefly luciferase (Photinus pyralis, UniProt P08659); assay: Firefly luciferase inhibition; settings: compounds marked with * in Fig. 2a
[9] = test system: PPAR; RXRα; RARα; assay: Selectivity profiling in Gal4 hybrid reporter gene assays outside the NR4A family; assay type: cell-based, human; settings: rel. activation vs reference agonists at 1 µM; n ≥ 4
[10] = target: T1, NOR1; assay: Gal4-NOR1 hybrid reporter gene assay in HEK293T cells; assay type: cell-based; settings: for Nor1 activity 10μM (mean fold activation) / Nor1 activity 30μM (mean fold activation): primary screen, n ≥ 2, ^# not significant vs VP16 control
[11] = target: T10, Nur77 (Homo sapiens, UniProt P22736); assay: Gal4-Nur77 hybrid reporter gene assay in HEK293T cells; assay type: cell-based; settings: primary screen, n ≥ 2, ^# not significant vs VP16 control
T10 construct: Nur77 (uniprot entry: hNUR77–P22736, residues 358–598); expressed in transfected cells; host or cells: HEK293T

[12] = target: T11, Gal4-VP16 (Human herpesvirus 1, UniProt P06492); assay type: cell-based; settings: n ≥ 4
T11 construct: host or cells: HEK293T

[13] = target: T2, RXRα; assay: Gal4-RXRα hybrid reporter gene assay (selectivity); assay type: cell-based; settings: selectivity profiling; also described previously
[14] = target: B2; assay: AlphaScreen or HTRF; Nurr1 homodimerization: GFP-Nurr1 LBD titrated from 500 nM against biotinylated Nurr1 LBD 0.375 nM on Tb-SA 0.75 nM; free GFP added to keep total GFP at 500 nM; HTRF assay buffer with 0.1% CHAPS; 1% DMSO alone or with AQ, CQ, parecoxib or oxaprozin at 100 µM; 2 h at RT; settings: both partners purified
[15] = target: T3, GFP-RXRα LBD; assay: AlphaScreen or HTRF; Nurr1-RXR heterodimerization: GFP-RXRα LBD titrated from 4 µM (dilution factor 0.7) against biotinylated Nurr1 LBD 0.375 nM on Tb-SA 0.75 nM; free GFP added to keep total GFP at 4 µM; HTRF assay buffer with 0.1% CHAPS; 1% DMSO alone or with AQ, CQ, MFA, parecoxib or oxaprozin at 100 µM; 2 h at RT; settings: both partners purified

T8 sequence (P43354 360-598): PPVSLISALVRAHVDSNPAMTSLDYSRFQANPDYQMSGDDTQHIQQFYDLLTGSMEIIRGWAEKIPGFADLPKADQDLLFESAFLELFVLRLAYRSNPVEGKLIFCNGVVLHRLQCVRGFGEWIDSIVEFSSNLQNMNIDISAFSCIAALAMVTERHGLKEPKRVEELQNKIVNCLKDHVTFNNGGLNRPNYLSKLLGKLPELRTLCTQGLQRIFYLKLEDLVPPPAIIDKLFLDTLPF
T10 sequence (P22736 358-598): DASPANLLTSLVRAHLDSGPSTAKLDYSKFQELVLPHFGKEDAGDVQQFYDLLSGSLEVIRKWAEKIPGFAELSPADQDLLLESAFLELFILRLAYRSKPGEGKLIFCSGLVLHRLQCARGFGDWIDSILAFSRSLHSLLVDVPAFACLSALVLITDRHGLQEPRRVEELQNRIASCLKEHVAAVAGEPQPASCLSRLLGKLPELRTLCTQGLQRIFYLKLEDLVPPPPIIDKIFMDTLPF
firefly luciferase, sequence (P08659 whole entry, the tested form may be a part): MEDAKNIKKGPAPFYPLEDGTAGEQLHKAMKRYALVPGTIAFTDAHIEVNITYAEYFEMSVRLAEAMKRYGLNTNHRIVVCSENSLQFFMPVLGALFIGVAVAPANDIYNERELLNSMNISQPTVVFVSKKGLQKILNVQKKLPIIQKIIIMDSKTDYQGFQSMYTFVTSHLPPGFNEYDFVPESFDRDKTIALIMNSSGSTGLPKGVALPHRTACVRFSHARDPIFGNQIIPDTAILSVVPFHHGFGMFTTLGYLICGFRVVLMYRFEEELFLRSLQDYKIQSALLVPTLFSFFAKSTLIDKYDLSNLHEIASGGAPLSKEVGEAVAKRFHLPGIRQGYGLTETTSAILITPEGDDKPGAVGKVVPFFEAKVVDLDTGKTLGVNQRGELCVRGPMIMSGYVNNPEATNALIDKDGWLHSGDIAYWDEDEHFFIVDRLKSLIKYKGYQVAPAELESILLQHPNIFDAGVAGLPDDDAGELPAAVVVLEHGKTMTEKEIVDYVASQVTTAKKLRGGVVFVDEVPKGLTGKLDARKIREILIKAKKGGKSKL
T7 sequence (P43354 whole entry, one chain of several): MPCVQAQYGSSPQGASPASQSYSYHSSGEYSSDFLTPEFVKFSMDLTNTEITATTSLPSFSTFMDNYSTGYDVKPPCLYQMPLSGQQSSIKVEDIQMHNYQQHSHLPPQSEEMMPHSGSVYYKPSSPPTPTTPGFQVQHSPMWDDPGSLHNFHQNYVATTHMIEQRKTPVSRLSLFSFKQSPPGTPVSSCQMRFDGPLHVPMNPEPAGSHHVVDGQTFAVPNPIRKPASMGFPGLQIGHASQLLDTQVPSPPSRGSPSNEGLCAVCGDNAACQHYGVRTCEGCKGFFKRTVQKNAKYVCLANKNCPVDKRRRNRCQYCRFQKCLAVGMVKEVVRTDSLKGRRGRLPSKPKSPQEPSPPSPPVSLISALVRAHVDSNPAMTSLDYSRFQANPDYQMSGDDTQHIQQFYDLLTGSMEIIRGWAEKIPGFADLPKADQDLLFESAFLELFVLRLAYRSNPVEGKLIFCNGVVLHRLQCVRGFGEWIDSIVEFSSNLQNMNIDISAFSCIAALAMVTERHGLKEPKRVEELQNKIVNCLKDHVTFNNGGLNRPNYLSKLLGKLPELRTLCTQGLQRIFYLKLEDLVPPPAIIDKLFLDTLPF
T9 sequence (P43354 whole entry): as the sequence (P43354 whole entry, one chain of several) above
T5 sequence (P43354 whole entry): as the sequence (P43354 whole entry, one chain of several) above

Molecule	EC50 ([6]; mean ± SD) [µM]	Inhibition of firefly luciferase [8]	Nor1 activity 10μM (mean fold activation) [10] [fold]	Nor1 activity 30μM (mean fold activation) [10] [fold]	Nur77 activity 10μM (mean fold activation) [11] [fold]	Nur77 activity 30μM (mean fold activation) [11] [fold]	Nurr1 activity 10μM (mean fold activation) [6] [fold]	Nurr1 activity 30μM (mean fold activation) [6] [fold]	further results
CCN(CC)Cc1cc(Nc2ccnc3cc(Cl)ccc23)ccc1O [AQ, amodiaquine]	36								NCoR-1 affinity (effect of ligand) [1]: promoted the Nurr1–NCoR-1 interaction; also recorded: Enhances affinity; EC50 [2]: 87 µM; Homodimerization (effect of ligand) [3]: promoted homodimerization; also recorded: Promotes dimerization; Nurr1 activation efficacy [4]: ~ 3 fold; EC50 [5]: 97 µM; EC50 [7]: 92 µM
O=C(O)COC(=O)Cc1ccccc1Nc1c(Cl)cccc1Cl [aceclofenac]	2.5 ± 0.1	inhibit firefly luciferase	0.94	0.49	0.84	0.60	0.85	0.46	Selectivity over PPAR, RXRα, RARα [9]: confirmed selectivity; Gal4-Nurr1 maximum/minimum activation ([6]; vs 0.1% DMSO, mean ± SD): 1.99 ± 0.07 fold
Cc1ccc(Nc2c(F)cccc2Cl)c(CC(=O)O)c1 [lumiracoxib]		inhibit firefly luciferase	0.86	0.79	0.76	0.66	0.90	0.76	
O=C(O)CCc1nc(-c2ccccc2)c(-c2ccccc2)o1 [oxaprozin]									NOR1 min./max. activation ([10]; compared to 0.1% DMSO, mean ± SD): ≥ 0.00; Control experiments on Gal4-VP16 (non-specific reporter effects) [12]: no non-specific reporter suppression; RXR agonism [13]: weak RXR agonism
B1									binding result [14]: binds
B2									binding result [15]: binds
